In a melting point compilation (Tetko et al.; mined from patent text by program, amines drawn as free bases though some values may be those of a salt):

| melting point [°C] | Compound |
| --- | --- |
| 262 to 265 | O=c1cc(-c2ccc(CO)cc2)oc2ccc(O)cc12 |
| 107 to 108 | Cc1ccc(C)n1-c1nc(S(=O)(=O)Nc2c(Cl)cccc2Cl)n[nH]1 |
| 55 to 56 | O=S(=O)(Nc1ccc(Cl)cc1C(=NOCc1ccc(Br)cc1)c1ccccc1)C(F)(F)F |
| 214 | O=C(O)c1ccnc(Br)c1 |
| 110 | CN(C)CCNc1ncc(C(=O)N(C)Cc2cc(C(F)(F)F)cc(C(F)(F)F)c2)c(-c2ccccc2)n1 |
| 66 to 67 | CCCCCCCCCCCCCCCCCCOc1ccc(NC(=O)OC(C)(C)C)cc1 |
| 60 | O=[N+]([O-])c1cccc(/C=C/c2nc(C3CCCCCC3)cs2)c1 |
| 174 | CC(C)n1nc(-c2c(-c3ccccc3)nn3ccc(OCC(=O)OCc4ccccc4)cc23)ccc1=O |
| 152 to 156 | Nc1nc(CN2CCCN(C(c3ccccc3)c3ccccc3)CC2)cs1 |
| 277 to 278 | Cc1ccc(C(=O)O)cc1Nc1nccc(-c2cccnc2)n1 |
| 170 | CCCCCCCCCc1ccc(O)c(C=NO)c1 |
| 75 | COc1ccc(S(=O)(=O)C2(C(=O)NO)CCN(C(C)C)CC2)cc1 |
| 307 to 310 | Cc1cc(-c2c(F)c(F)c3c(=O)c(C(=O)O)cn4c3c2OC[C@@H]4C)cc(C)n1 |
| 154 to 155 | O=C(c1ccc(-c2ccccc2)cc1)C1(n2cncn2)CC1 |
| 239 to 241 | COC(=O)c1cccc2c(=O)c3c(I)cccc3[nH]c12 |
| 120 to 121 | Cc1nnc(C(CCN2CC3CC4CC(C3)CC2C4)(c2ccccc2)c2ccccc2)o1 |
| 266 to 267 | CCOC(=O)c1ncn2c3cccc(I)c3c(=O)n(C)c12 |
| 56 to 58 | CC(C)N1CCN(c2ccc(C(=O)NCCCCCCCCCCCCO[N+](=O)[O-])cn2)CC1 |
| 134 | CC(C)c1nc(N(C)S(C)(=O)=O)nc(-c2ccc(F)cc2)c1/C=C/C#N |
| 150 to 153 | CC(C)Cn1cc(F)c(-n2cncn2)nc1=O |
| 171 to 173 | Cc1ccccc1-c1ccc(C(=O)N2Cc3ccc(C(=O)NCc4cccc(C(F)(F)F)c4)n3Cc3ccccc32)cc1C |
| 279 | COc1ccc(C(=O)Nc2c(Cl)cc(C(=O)O)cc2Cl)c2cc(C(C)C)oc12 |
| 76 to 82 | CCCCCCCCCCCCCCCCCC(=O)NC(C)c1c[nH]c(CCCCCCCCCCCCCCCCC)n1 (stereo not drawn) |

| melting point [°C] | Compound |
| --- | --- |
| 309 | NS(=O)(=O)c1cnc(NC(=O)c2cnn3c(C(F)(F)F)cc(-c4ccc(C(F)(F)F)cc4)nc23)s1 |
| 328 to 334 | CCNC(=O)Nc1nc2cc(-c3cnc(N(C)C)nc3)cc(C(=O)NCC)n2n1 |
| 257 | Cn1cnc(S(=O)(=O)Nc2cccc(C=C3c4ccccc4CCc4ccccc43)c2)c1 |
| 93 | CCCCNC(=S)Nc1onc2c1CCC2 |
| 298 to 300 | CCCNC(=O)NCc1cccc2c1CN(C1CCC(=O)NC1=O)C2=O (stereo not drawn) |
| 141 | Cc1ccc(S(=O)(=O)OC[C@H]2CN(c3ccc(N4CCSCC4)c(F)c3)C(=O)O2)cc1 |
| 159 to 163 | CC(=O)OCC1OC(n2cc(S)c(=O)[nH]c2=O)CC1(O)C(C)=O (stereo not drawn) |
| 230 to 233 | COc1cc2cccnc2c(N2CCN([C@H]3CC[C@@H](c4cn(C)c5ccc(C#N)cc54)CC3)CC2)n1 |
| 200 to 201 | CN1CC=C(CC(=O)N2c3ccccc3NC(=O)c3ccccc32)CC1 |
| 162 | O=C(NC1CCC(c2cc(Nc3cccc(C(F)(F)F)c3)n[nH]2)C1)c1ccccn1 (stereo not drawn) |
| 179 to 181 | Cn1cc(OC(=O)c2ccccc2)c(=O)c2cccc(F)c21 |
| 127 | Clc1ccc(/C=C/C2=CCN(Cc3ccc(Cl)cc3)CC2)cc1 |
| 66 to 68 | COc1ccc2c(c1)CCC(=CO)C2=O |
| 298 to 299 | CCCOc1ccccc1-c1nc2[nH]c(=O)nnc2c(=O)[nH]1 |
| 260 to 261 | Cc1cc(-c2nc3ccccc3c(=O)[nH]2)cc(C)c1OCCO |
| 78 to 80 | Nc1nc2c(s1)CCN(CC=Cc1cccc(OCc3ccccc3)c1)CC2 |
| 79 to 80 | N#Cc1cccc2c1OCCN2 |
| 112 to 114 | CNC(=O)c1ncn(C(OC)c2ccc(Cl)c(Cl)c2)c1C(=O)NC (single isomer, unassigned; (+)) |
| 253 | CC1(C)Oc2ccncc2[C@@H](N2CCCC2=O)[C@@H]1O (relative stereo) |
| 104 to 106 | Cc1c(Cl)sn(-c2ccc(Cl)cc2)c1=O |
| 96 to 100 | O=C(c1ccc(F)cc1)N1CCCC(c2nc(Oc3ccccc3)no2)C1 (stereo not drawn) |
| 118 to 121 | CCOC(=O)c1cn(C(C)c2c(F)cccc2F)nn1 (stereo not drawn) |
| 197 to 199 | NC(=O)c1cncc(OCC(O)CO)c1 (stereo not drawn) |

| melting point [°C] | Compound |
| --- | --- |
| 143 to 145 | CN1CCc2ccc(C(=O)CCC(=O)N3CCC(c4ccc(Cl)cc4)CC3)cc2CC1 |
| 225 | CCOc1ccccc1C1(CC(=O)N2CCN(c3ccncc3)CC2)C(=O)N(S(=O)(=O)c2ccc(OC)cc2OC)c2ccc(Cl)cc21 (stereo not drawn) |
| 168 | COc1ccc(-n2nc(OC(C)C)cc2-c2ccc(OCCNS(C)(=O)=O)cc2)cc1 |
| 226 to 227 | CCNc1nnc(-c2ccc3ncn(-c4ccc(SC)cc4)c3c2)o1 |
| 28 to 29 | CCCCCCCCCCCCCCOc1ccc(CC(CO)CC2(C)OCCO2)cc1 (stereo not drawn) |
| 242 to 244 | Cc1ccc(N2C(=O)NC(=O)C23CCN(C(=O)c2ccccc2)CC3)cc1 |
| 197 to 199 | CCOCc1nc2c(N)nc3cc(-c4cccnc4)ccc3c2n1CC(C)(C)O |
| 182 to 184 | CCOC(=O)COc1ccc2cc(S(N)(=O)=O)sc2c1 |
| 129 to 131 | N#CSCc1ccc(C(=O)c2ccc(Cl)cc2)cc1 |
| 96 to 98 | CC(C)c1cccc(C(C)C)c1NC(=O)CCCCCSc1nc2cnccc2[nH]1 |
| 120 to 121 | CNc1ccc(C(=O)N2CCN(CCc3ccc(SC)cc3)CC2)cc1 |
| 211 to 213 | COc1cc(OCC(=O)O)c(C)cc1SCc1sc(-c2ccc(C(F)(F)F)cc2)nc1C |
| 184 to 185 | CC(C)Oc1ccc(-n2c(C(=O)NCCNC(=O)OC(C)(C)C)c(Cl)c3cc(Oc4ccc(C(F)(F)F)cn4)ccc32)cc1 |
| 190 to 191 | CCC(CC)n1nc(C)c2c(NN3CCc4cc(Br)cc(Br)c43)nc(C)nc21 |
| 240 | NCC1CCN(CC(=O)Nc2cccc3c2C(=O)c2c-3n[nH]c2-c2ccc(N3CCOCC3)cc2)CC1 |
| 197 to 199 | CC(=O)NN1CC(C)=NNC1=O |
| 100 to 102 | COc1cc(C(=O)N(C)OC)c2oc(-c3ccc(OC)c(F)c3)cc2c1 |
| 124 | CS(=O)(=O)c1ccc(-c2nn(CC3CC3)c(=O)cc2-c2ccc(F)cc2)cc1 |
| 179 to 180 | CNS(=O)(=O)Cc1cc(Br)c(NC(=O)C(F)(F)F)c(Br)c1 |
| 122 to 123 | COCCOc1cc(N(C)S(=O)(=O)c2cccs2)c2[nH]c(C3=NCC(CCO)S3)cc2c1 (stereo not drawn) |
| 118 | C=C(CS(=O)(=O)Cc1ccccc1)c1ccccc1 |
| 129 to 130 | O=C1CC(=O)CC(CC2CCOCC2)C1 |
| 238 to 239 | CN(CC(O)c1ccc2[nH]c(=O)[nH]c2c1)C1CCC(c2ccccc2)CC1 (stereo not drawn) |

| melting point [°C] | Compound |
| --- | --- |
| 65 to 67 | CN1CCN(CCCNc2ccccc2N)CC1 |
| 91 | O=C(CCCC(=O)N1C(=O)OC[C@@H]1c1ccccc1)c1ccc(F)cc1 |
| 309 to 313 | NC(=O)c1nn(-c2ccc(F)cc2)c2c1CCc1ccc(NC(=O)c3cc(N4CCOCC4)ncc3Cl)cc1-2 |
| 72 to 75 | COCC(=O)OCn1cc(C#N)c(-c2cccc(Cl)c2Cl)c1 |
| > 270 | Cn1ncc2[nH]c3ccc(Cc4cccc(O)c4)cc3c(=O)c21 |
| 32 to 34 | COc1cc(Cl)ncn1 |
| 123 to 126 | CCc1nc2c(cnn2CC)c(NC2CCOCC2)c1CNC(=O)c1cc(C)cc(C(=O)NCc2ccc(OC)c(Br)c2)c1 |
| 234 to 235 | O=C(O)c1cc2ccccc2c(Cl)c1O |
| 72 | CC1(C)CCS(=O)(=O)N1 |
| 355 to 360 | COc1ccc(-c2ccc(O)c(C34CC5CC(CC(C5)C3)C4)c2)cc1C=C1SC(N2CCOCC2)=NC1=O |
| 141 to 149 | CC(C)(C)C1Cc2cc(N3C[C@H](CO)OC3=O)ccc2N1C(=O)OCc1ccccc1 (stereo partly drawn) |
| 206 to 208 | CC1(C)C(=O)Nc2ccc(-c3ccc(F)c(Cl)c3)cc21 |
| 180 to 181 | Nc1ccc(NC(=O)CCC(=O)O)cc1 |
| 270 to 278 | COc1ccc(C(=O)Nc2c(Cl)cncc2Cl)c2c(CC(=O)O)coc12 |
| 163 to 164 | COc1ccc(C2(O)OC(=O)C(c3cc(C)c4nsnc4c3)=C2Cc2cc(OC)c(OC3CCCCC3)c(OC)c2)cc1F (stereo not drawn) |
| 80 to 82 | O=C(Cl)c1cc(Br)c(C(=O)Cl)cc1Br |
| 132 to 134 | COc1cc2c(cc1OC)CC(=O)N(CCCI)C=C2 |
| 165 | COc1ccc(N2CCOCC2)c2sc(C(=O)NCC(=O)c3ccccc3)nc12 |
| 208 | Nc1cc(F)c2[nH]nc(NC(=O)c3ccccc3)c2c1 |
| 160 to 162 | COC1(OC)C2(Cl)C(Cl)=C(Cl)C1(Cl)C1OC(=O)OC12 (stereo not drawn) |
| 210 to 211 | Nc1cc(-n2cccn2)nc(-c2ccc(Cl)o2)n1 |

| Compound | melting point [°C] |
| --- | --- |
| Cc1cc(C)n(CC2CC3c4cccc5[nH]cc(c45)CC3N(C)C2)n1 (stereo not drawn) | 187 to 190 |
| CN1C(=O)[C@H](NC(=O)COc2ccccc2)N=C(c2ccccc2)c2ccccc21 | 126 to 128 |
| CC(C#N)CCCC(N(C)C)C1(c2ccc(Cl)cc2)CCC1 (stereo not drawn) | 54 to 56 |
| O=C1OCC2Cc3ccccc3OC12 (stereo not drawn) | 107 to 111 |
| COC(=O)[C@H](c1ccccc1Cl)N1CCc2sc(OC(=O)N(C)C)cc2C1 | 96 to 98 |
| CN1c2ccccc2C(c2ccccc2F)=NCC1CNC(=O)C(Cc1c[nH]c2ccccc12)NC(=O)OC(C)(C)C (stereo not drawn) | 124 |
| CCc1c(C(=O)C(N)=O)c2c(OCC(=O)O)cccc2n1Cc1ccccc1 | 230 to 234 |
| CC(C)(C)c1cc(-n2nc3ccc(C(F)(F)F)cc3n2)c(O)c(C(C)(C)C)c1 | 131 to 133 |
